Assays:
[1] = test system: CCRF-CEM; assay: Antiproliferative activity against human CCRF-CEM cells assessed as cell growth inhibition incubated for 72 hrs by MTT assay; format: functional
[2] = test system: HL-60(TB); assay: Antiproliferative activity against human HL-60(TB) cells assessed as cell growth inhibition incubated for 72 hrs by MTT assay; format: functional
[3] = test system: MOLT-4; assay: Antiproliferative activity against human MOLT-4 cells assessed as cell growth inhibition incubated for 72 hrs by MTT assay; format: functional
[4] = test system: RPMI-8226; assay: Antiproliferative activity against human RPMI-8226 cells assessed as cell growth inhibition incubated for 72 hrs by MTT assay; format: functional
[5] = test system: EKVX; assay: Antiproliferative activity against human EKVX cells assessed as cell growth inhibition incubated for 72 hrs by MTT assay; format: functional
[6] = test system: NCI-H226; assay: Antiproliferative activity against human NCI-H226 cells assessed as cell growth inhibition incubated for 72 hrs by MTT assay; format: functional
[7] = test system: NCI-H23; assay: Antiproliferative activity against human NCI-H23 cells assessed as cell growth inhibition incubated for 72 hrs by MTT assay; format: functional
[8] = test system: NCI-H460; assay: Antiproliferative activity against human NCI-H460 cells assessed as cell growth inhibition incubated for 72 hrs by MTT assay; format: functional
[9] = test system: NCI-H522; assay: Antiproliferative activity against human NCI-H522 cells assessed as cell growth inhibition incubated for 72 hrs by MTT assay; format: functional
[10] = test system: HCC 2998; assay: Antiproliferative activity against human HCC 2998 cells assessed as cell growth inhibition incubated for 72 hrs by MTT assay; format: functional
[11] = test system: HCT-116; assay: Antiproliferative activity against human HCT-116 cells assessed as cell growth inhibition incubated for 72 hrs by MTT assay; format: functional
[12] = test system: HCT-15; assay: Antiproliferative activity against human HCT-15 cells assessed as cell growth inhibition incubated for 72 hrs by MTT assay; format: functional
[13] = test system: HT-29; assay: Antiproliferative activity against human HT-29 cells assessed as cell growth inhibition incubated for 72 hrs by MTT assay; format: functional
[14] = test system: SW-620; assay: Antiproliferative activity against human SW620 cells assessed as cell growth inhibition incubated for 72 hrs by MTT assay; format: functional
[15] = test system: SF-268; assay: Antiproliferative activity against human SF-268 cells assessed as cell growth inhibition incubated for 72 hrs by MTT assay; format: functional
[16] = test system: SF-295; assay: Antiproliferative activity against human SF-295 cells assessed as cell growth inhibition incubated for 72 hrs by MTT assay; format: functional
[17] = test system: SF-539; assay: Antiproliferative activity against human SF-539 cells assessed as cell growth inhibition incubated for 72 hrs by MTT assay; format: functional
[18] = test system: SNB-19; assay: Antiproliferative activity against human SNB-19 cells assessed as cell growth inhibition incubated for 72 hrs by MTT assay; format: functional
[19] = test system: LOX IMVI; assay: Antiproliferative activity against human LOX IMVI cells assessed as cell growth inhibition incubated for 72 hrs by MTT assay; format: functional
[20] = test system: Malme-3M; assay: Antiproliferative activity against human Malme-3M cells assessed as cell growth inhibition incubated for 72 hrs by MTT assay; format: functional
[21] = test system: SK-MEL-2; assay: Antiproliferative activity against human SK-MEL-2 cells assessed as cell growth inhibition incubated for 72 hrs by MTT assay; format: functional
[22] = test system: SK-MEL-28; assay: Antiproliferative activity against human SK-MEL-28 cells assessed as cell growth inhibition incubated for 72 hrs by MTT assay; format: functional
[23] = test system: SK-MEL-5; assay: Antiproliferative activity against human SK-MEL-5 cells assessed as cell growth inhibition incubated for 72 hrs by MTT assay; format: functional
[24] = test system: UACC-62; assay: Antiproliferative activity against human UACC-62 cells assessed as cell growth inhibition incubated for 72 hrs by MTT assay; format: functional
[25] = test system: IGROV-1; assay: Antiproliferative activity against human IGROV-1 cells assessed as cell growth inhibition incubated for 72 hrs by MTT assay; format: functional
[26] = test system: OVCAR-4; assay: Antiproliferative activity against human OVCAR-4 cells assessed as cell growth inhibition incubated for 72 hrs by MTT assay; format: functional
[27] = test system: OVCAR-5; assay: Antiproliferative activity against human OVCAR-5 cells assessed as cell growth inhibition incubated for 72 hrs by MTT assay; format: functional
[28] = test system: OVCAR-8; assay: Antiproliferative activity against human OVCAR-8 cells assessed as cell growth inhibition incubated for 72 hrs by MTT assay; format: functional
[29] = test system: NCI/ADR-RES; assay: Antiproliferative activity against human NCI-ADR-RES cells assessed as cell growth inhibition incubated for 72 hrs by MTT assay; format: functional
[30] = test system: SK-OV-3; assay: Antiproliferative activity against human SK-OV-3 cells assessed as cell growth inhibition incubated for 72 hrs by MTT assay; format: functional
[31] = test system: 786-0; assay: Antiproliferative activity against human 786-0 cells assessed as cell growth inhibition incubated for 72 hrs by MTT assay; format: functional
[32] = test system: A498; assay: Antiproliferative activity against human A498 cells assessed as cell growth inhibition incubated for 72 hrs by MTT assay; format: functional
[33] = test system: ACHN; assay: Antiproliferative activity against human ACHN cells assessed as cell growth inhibition incubated for 72 hrs by MTT assay; format: functional
[34] = test system: RXF 393; assay: Antiproliferative activity against human RXF 393 cells assessed as cell growth inhibition incubated for 72 hrs by MTT assay; format: functional
[35] = test system: UO-31; assay: Antiproliferative activity against human UO-31 cells assessed as cell growth inhibition incubated for 72 hrs by MTT assay; format: functional
[36] = test system: PC-3; assay: Antiproliferative activity against human PC-3 cells assessed as cell growth inhibition incubated for 72 hrs by MTT assay; format: functional
[37] = test system: MDA-MB-231; assay: Antiproliferative activity against human MDA-MB-231 cells assessed as cell growth inhibition incubated for 72 hrs by MTT assay; format: functional
[38] = test system: Hs-578T; assay: Antiproliferative activity against human Hs-578T cells assessed as cell growth inhibition incubated for 72 hrs by MTT assay; format: functional
[39] = test system: MDA-MB-468; assay: Antiproliferative activity against human MDA-MB-468 cells assessed as cell growth inhibition incubated for 72 hrs by MTT assay; format: functional
[40] = test system: VL51; assay: Antiproliferative activity against human VL51 cells assessed as proliferating cells at 1 uM incubated for 72 hrs by MTT assay relative to control; format: functional
[41] = Antiproliferative activity against human MINO cells assessed as proliferating cells at 1 uM incubated for 72 hrs by MTT assay relative to control; format: functional
[42] = Antiproliferative activity against human HBL1 cells assessed as proliferating cells at 1 uM incubated for 72 hrs by MTT assay relative to control; format: functional
[43] = test system: SU-DHL10; assay: Antiproliferative activity against human SU-DHL-10 cells assessed as proliferating cells at 1 uM incubated for 72 hrs by MTT assay relative to control; format: functional
[44] = Antiproliferative activity against human MINO cells assessed as inhibition of cell proliferation incubated for 72 hrs by MTT assay; format: functional, cell-based
[45] = Antiproliferative activity against human HBL1 cells assessed as inhibition of cell proliferation incubated for 72 hrs by MTT assay; format: functional, cell-based; conditions: HBL1, 72 h
[46] = test system: SU-DHL10; assay: Antiproliferative activity against human SU-DHL-10 cells assessed as inhibition of cell proliferation incubated for 72 hrs by MTT assay; format: functional, cell-based; conditions: SU-DHL10, 72 h
[47] = test system: HOP-62; assay: Antiproliferative activity against human HOP-62 cells assessed as cell growth inhibition incubated for 72 hrs by MTT assay; format: functional

In the case of COc1ccc(Cn2cc3c(c2-c2cc(OC)c(OC)c(OC)c2)CCc2c(CO)noc2-3)cc1, the GI50 [1] is reported as 320 nM, the GI50 [2] is reported as 210 nM and the GI50 [3] is reported as 440 nM. It also gave a GI50 [4] of 420 nM, a GI50 [5] of 510 nM and a GI50 [6] of 15000 nM. It also gave a GI50 [7] of 520 nM, a GI50 [8] of 340 nM and a GI50 [9] of 150 nM. It also gave a GI50 [10] of 1340 nM, a GI50 [11] of 270 nM and a GI50 [12] of 260 nM. For the same compound, the GI50 [13] was 320 nM, the GI50 [14] was 370 nM and the GI50 [15] was 1060 nM. It also gave a GI50 [16] of 180 nM, a GI50 [17] of 230 nM and a GI50 [18] of 390 nM. It also gave a GI50 [19] of 570 nM, a GI50 [20] of 13500 nM and a GI50 [21] of 460 nM. It also gave a GI50 [22] of 3600 nM, a GI50 [23] of 210 nM and a GI50 [24] of 250 nM. The GI50 [25] was 490 nM, the GI50 [26] was 5440 nM and the GI50 [27] was 710 nM. The GI50 [28] was 380 nM, the GI50 [29] was 260 nM and the GI50 [30] was 370 nM. The GI50 [31] was 360 nM, the GI50 [32] was 280 nM and the GI50 [33] was 620 nM. For the same compound, the GI50 [34] was 160 nM, the GI50 [35] was 580 nM and the GI50 [36] was 270 nM. For the same compound, the GI50 [37] was 630 nM, the GI50 [38] was 410 nM and the GI50 [39] was 330 nM. The Activity [40] was 51.3%, the Activity [41] was 82.1% and the Activity [42] was 80.3%. The Activity [43] was 62.1%, the IC50 [44] was 1400 nM and the IC50 [45] was 1700 nM. The IC50 [46] was 1800 nM.

COc1ccc(Cn2cc3c(c2-c2cc(OC)c(OC)c(OC)c2)CCc2c(CN4CCCC4)noc2-3)cc1 showed a GI50 [1] of 730 nM, a GI50 [2] of 320 nM and a GI50 [3] of 1470 nM. It also gave a GI50 [4] of 1270 nM, a GI50 [5] of 2110 nM and a GI50 [47] of 1000 nM. For the same compound, the GI50 [6] was 2070 nM, the GI50 [7] was 2800 nM and the GI50 [8] was 570 nM. The GI50 [9] was 470 nM, the GI50 [10] was 1840 nM and the GI50 [11] was 470 nM. For the same compound, the GI50 [12] was 480 nM, the GI50 [13] was 400 nM and the GI50 [14] was 540 nM. For the same compound, the GI50 [15] was 3150 nM, the GI50 [16] was 460 nM and the GI50 [17] was 750 nM. For the same compound, the GI50 [18] was 780 nM, the GI50 [20] was 500 nM and the GI50 [21] was 13200 nM. For the same compound, the GI50 [22] was 11500 nM, the GI50 [23] was 1020 nM and the GI50 [24] was 550 nM. For the same compound, the GI50 [25] was 890 nM, the GI50 [26] was 21400 nM and the GI50 [27] was 3200 nM. The GI50 [28] was 3270 nM, the GI50 [29] was 550 nM and the GI50 [30] was 6700 nM. It also gave a GI50 [31] of 1000 nM, a GI50 [32] of 780 nM and a GI50 [33] of 630 nM. For the same compound, the GI50 [34] was 890 nM, the GI50 [35] was 1160 nM and the GI50 [36] was 640 nM. The GI50 [37] was 3050 nM, the GI50 [38] was 1800 nM and the GI50 [39] was 280 nM. It also gave an Activity [40] of 57%, an Activity [41] of 8.7% and an Activity [42] of 30.6%. For the same compound, the Activity [43] was 0.3%, the IC50 [44] was 500 nM and the IC50 [45] was 600 nM. It also gave an IC50 [46] of 700 nM.

Reference: ChEMBL document CHEMBL5352447, “Development of [1,2]oxazoloisoindoles tubulin polymerization inhibitors: Further chemical modifications and potential therapeutic effects against lymphomas” (Eur J Med Chem, 2022)
